Positions count from the first letter of the chain named.

One assay addresses T1, AR protein (Homo sapiens, UniProt P10275, T878A).
T1 construct: degradation activity of the compounds disclosed in the present disclosure on AR protein in LNCaP cells; host or cells: LNCaP FGC
T1 sequence (P10275 1-920 T878A): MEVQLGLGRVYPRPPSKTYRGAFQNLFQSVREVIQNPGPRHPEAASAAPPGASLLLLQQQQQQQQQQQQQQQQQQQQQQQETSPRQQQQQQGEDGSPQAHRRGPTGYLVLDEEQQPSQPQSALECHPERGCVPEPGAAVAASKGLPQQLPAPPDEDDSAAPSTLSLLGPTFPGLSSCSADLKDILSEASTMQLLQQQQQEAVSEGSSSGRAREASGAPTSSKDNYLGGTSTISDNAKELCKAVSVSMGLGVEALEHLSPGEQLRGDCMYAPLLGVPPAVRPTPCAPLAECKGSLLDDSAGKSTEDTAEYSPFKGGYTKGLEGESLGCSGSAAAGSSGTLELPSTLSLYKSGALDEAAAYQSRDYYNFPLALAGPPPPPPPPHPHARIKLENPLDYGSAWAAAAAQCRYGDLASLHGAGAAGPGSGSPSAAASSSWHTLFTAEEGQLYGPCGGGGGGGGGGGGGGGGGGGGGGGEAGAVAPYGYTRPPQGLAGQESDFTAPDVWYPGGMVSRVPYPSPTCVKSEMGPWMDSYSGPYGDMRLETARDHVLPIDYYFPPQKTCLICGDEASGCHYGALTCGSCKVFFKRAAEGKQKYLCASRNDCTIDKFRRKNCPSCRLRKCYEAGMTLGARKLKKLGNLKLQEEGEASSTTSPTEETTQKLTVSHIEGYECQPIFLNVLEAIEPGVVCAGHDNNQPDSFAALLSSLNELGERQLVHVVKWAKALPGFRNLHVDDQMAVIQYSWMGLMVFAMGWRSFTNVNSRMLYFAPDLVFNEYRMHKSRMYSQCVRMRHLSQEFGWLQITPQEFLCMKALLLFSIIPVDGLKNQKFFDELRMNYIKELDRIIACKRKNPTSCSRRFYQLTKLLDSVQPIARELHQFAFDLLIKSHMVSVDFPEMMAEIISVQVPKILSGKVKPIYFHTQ
The experiment in a line: Degradation of AR protein in LNCaP cells (Western blot). It is filed as cell-based. Conditions: LNCaP cells, compound 10 nM, 8 hours, Western blot grayscale, GAPDH internal reference; read-out: Degradation rates of the AR protein in LNCaP cells, 10 nM (%). The method in brief:
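Percent AR degradation was derived from GAPDH-normalised Western blot band intensities (infrared detection) in LNCaP lysates.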
As for `N#Cc1ccc(O[C@H]2CC[C@H](NC(=O)c3ccc(N4CCC5(CC4)COc4cc6c(cc4C5)C(=O)N(C4CCC(=O)NC4=O)C6=O)nn3)CC2)cc1Cl` (stereo partly drawn) [Compound 60], the inhibition at 0.01 µM stood at 41%.

For the molecule `N#Cc1ccc(O[C@H]2CC[C@H](NC(=O)c3ccc(N4CCC5(CCC(N6CCC7(CC6)COc6cc8c(cc6C7)C(=O)N(C6CCC(=O)NC6=O)C8=O)CC5)C4)nn3)CC2)cc1Cl` (stereo partly drawn) [Compound 62], the inhibition at 0.01 µM is 46%.

Consider `N#Cc1ccc(O[C@H]2CC[C@H](NC(=O)c3ccc(N4CCC5(CC(N6CCC7(CC6)COc6cc8c(cc6C7)C(=O)N(C6CCC(=O)NC6=O)C8=O)C5)C4)nn3)CC2)cc1Cl` (stereo partly drawn) [Compound 63], for which the inhibition at 0.01 µM was determined as 0%.

Take `N#Cc1ccc(O[C@H]2CC[C@H](NC(=O)c3ccc(N4CCC5(CCC(N6CCC7(CC6)COc6cc8c(cc6C7)C(=O)N(C6CCC(=O)NC6=O)C8=O)CC5)CC4)nn3)CC2)cc1Cl` (stereo partly drawn) [Compound 64]: the inhibition at 0.01 µM is 44%.

The same assay, now with this note: LNCaP cells, compound 100 nM, 8 hours, Western blot grayscale, GAPDH internal reference; read-out: Degradation rates of the AR protein in LNCaP cells, 100 nM (%).
`N#Cc1ccc(O[C@H]2CC[C@H](NC(=O)c3ccc(N4CCC5(CC4)COc4cc6c(cc4C5)C(=O)N(C4CCC(=O)NC4=O)C6=O)nn3)CC2)cc1Cl` (stereo partly drawn) [Compound 60]: the inhibition at 0.1 µM was 64%.

For `N#Cc1ccc(O[C@H]2CC[C@H](NC(=O)c3ccc(N4CCC5(CCC(N6CCC7(CC6)COc6cc8c(cc6C7)C(=O)N(C6CCC(=O)NC6=O)C8=O)CC5)C4)nn3)CC2)cc1Cl` (stereo partly drawn) [Compound 62], the inhibition at 0.1 µM turned out to be 76%.

On to `N#Cc1ccc(O[C@H]2CC[C@H](NC(=O)c3ccc(N4CCC5(CC(N6CCC7(CC6)COc6cc8c(cc6C7)C(=O)N(C6CCC(=O)NC6=O)C8=O)C5)C4)nn3)CC2)cc1Cl` (stereo partly drawn) [Compound 63], for which the inhibition at 0.1 µM was 65%.

Turning to `N#Cc1ccc(O[C@H]2CC[C@H](NC(=O)c3ccc(N4CCC5(CCC(N6CCC7(CC6)COc6cc8c(cc6C7)C(=O)N(C6CCC(=O)NC6=O)C8=O)CC5)CC4)nn3)CC2)cc1Cl` (stereo partly drawn) [Compound 64], the inhibition at 0.1 µM is 72%.

A further assay has as its target T2, AR protein (Homo sapiens, UniProt P10275).
T2 construct: degradation activity of the compounds disclosed in the present disclosure on AR protein in VCaP cells; host or cells: VCaP
T2 sequence (P10275 1-920): T1 sequence (P10275 1-920 T878A) with A878T
The experiment in a line: Degradation of AR protein in VCaP cells (Western blot). Format: cell-based. To be noted: compound at 10 nM, 8 hours, read-out: Degradation rate of the AR protein in VCaP cells, 10 nM (%). The method in brief:
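Western blot readout: AR band grayscale normalised to GAPDH, used to derive degradation rate. Lysates came from VCaP cells exposed to compound for 8 h, with solvent controls run in parallel.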
Take `N#Cc1ccc(O[C@H]2CC[C@H](NC(=O)c3ccc(N4CCC5(CC4)COc4cc6c(cc4C5)C(=O)N(C4CCC(=O)NC4=O)C6=O)nn3)CC2)cc1Cl` (stereo partly drawn) [Compound 60]: the inhibition at 0.01 µM was determined as 41%.

With `N#Cc1ccc(O[C@H]2CC[C@H](NC(=O)c3ccc(N4CCC5(CCC(N6CCC7(CC6)COc6cc8c(cc6C7)C(=O)N(C6CCC(=O)NC6=O)C8=O)CC5)C4)nn3)CC2)cc1Cl` (stereo partly drawn) [Compound 62], the inhibition at 0.01 µM turned out to be 66%.

Take `N#Cc1ccc(O[C@H]2CC[C@H](NC(=O)c3ccc(N4CCC5(CC(N6CCC7(CC6)COc6cc8c(cc6C7)C(=O)N(C6CCC(=O)NC6=O)C8=O)C5)C4)nn3)CC2)cc1Cl` (stereo partly drawn) [Compound 63]: the inhibition at 0.01 µM was 67%.

For the molecule `N#Cc1ccc(O[C@H]2CC[C@H](NC(=O)c3ccc(N4CCC5(CCC(N6CCC7(CC6)COc6cc8c(cc6C7)C(=O)N(C6CCC(=O)NC6=O)C8=O)CC5)CC4)nn3)CC2)cc1Cl` (stereo partly drawn) [Compound 64], the inhibition at 0.01 µM worked out at 62%.

Staying with this assay, now noted: compound at 100 nM, 8 hours, read-out: Degradation rate of the AR protein in VCaP cells, 100 nM (%).
With `N#Cc1ccc(O[C@H]2CC[C@H](NC(=O)c3ccc(N4CCC5(CC4)COc4cc6c(cc4C5)C(=O)N(C4CCC(=O)NC4=O)C6=O)nn3)CC2)cc1Cl` (stereo partly drawn) [Compound 60], the inhibition at 0.1 µM worked out at 64%.

As to `N#Cc1ccc(O[C@H]2CC[C@H](NC(=O)c3ccc(N4CCC5(CCC(N6CCC7(CC6)COc6cc8c(cc6C7)C(=O)N(C6CCC(=O)NC6=O)C8=O)CC5)C4)nn3)CC2)cc1Cl` (stereo partly drawn) [Compound 62], the inhibition at 0.1 µM was 74%.

Consider `N#Cc1ccc(O[C@H]2CC[C@H](NC(=O)c3ccc(N4CCC5(CC(N6CCC7(CC6)COc6cc8c(cc6C7)C(=O)N(C6CCC(=O)NC6=O)C8=O)C5)C4)nn3)CC2)cc1Cl` (stereo partly drawn) [Compound 63], for which the inhibition at 0.1 µM amounted to 81%.

Regarding `N#Cc1ccc(O[C@H]2CC[C@H](NC(=O)c3ccc(N4CCC5(CCC(N6CCC7(CC6)COc6cc8c(cc6C7)C(=O)N(C6CCC(=O)NC6=O)C8=O)CC5)CC4)nn3)CC2)cc1Cl` (stereo partly drawn) [Compound 64], the inhibition at 0.1 µM came to 73%.

For a further assay, the system named is LNCaP FGC cells. The experiment in a line: Inhibition of proliferation of LNCaP cells (WST-8). To be noted: Homo sapiens, LNCaP, 96 h, LNCaP FGC cells, 96 hours, WST-8 absorbance at 450 nm; read-out: IC50 for inhibiting the proliferation of LNCaP cells. It is filed as cell-based. How it is done:
The cells were cultured in a cell culture incubator with 5% CO2 at 37° C. overnight. […] On the sixth day, 96 well plates were taken out, and 20 μL of WST-8 (Beytime, C0040) reagent was added to each well.
For `N#Cc1ccc(O[C@H]2CC[C@H](NC(=O)c3ccc(N4CCC5(CC4)COc4cc6c(cc4C5)C(=O)N(C4CCC(=O)NC4=O)C6=O)nn3)CC2)cc1Cl` (stereo partly drawn) [Compound 60], the IC50 was 2.4 µM.

On to `N#Cc1ccc(O[C@H]2CC[C@H](NC(=O)c3ccc(N4CCC5(CCC(N6CCC7(CC6)COc6cc8c(cc6C7)C(=O)N(C6CCC(=O)NC6=O)C8=O)CC5)C4)nn3)CC2)cc1Cl` (stereo partly drawn) [Compound 62], for which the IC50 was determined as 0.82 µM.

With `N#Cc1ccc(O[C@H]2CC[C@H](NC(=O)c3ccc(N4CCC5(CC(N6CCC7(CC6)COc6cc8c(cc6C7)C(=O)N(C6CCC(=O)NC6=O)C8=O)C5)C4)nn3)CC2)cc1Cl` (stereo partly drawn) [Compound 63], the IC50 came out at 0.5 µM.

Consider `N#Cc1ccc(O[C@H]2CC[C@H](NC(=O)c3ccc(N4CCC5(CCC(N6CCC7(CC6)COc6cc8c(cc6C7)C(=O)N(C6CCC(=O)NC6=O)C8=O)CC5)CC4)nn3)CC2)cc1Cl` (stereo partly drawn) [Compound 64], for which the IC50 stood at 0.8 µM.

In a further assay the test system is VCaP cells. The experiment in a line: Inhibition of proliferation of VCaP cells (WST-8). To be noted: Homo sapiens; VCaP cells, 168 hours, WST-8 absorbance at 450 nm; read-out: IC50 for inhibiting the proliferation of VCaP cells. Format: cell-based. The method in brief: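 Proliferation was read by WST-8 on day nine. Cells were VCaP FGC, seeded at 15000 cells per well in 10% FBS DMEM and kept at 37° C with 5% CO2.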
Regarding `N#Cc1ccc(O[C@H]2CC[C@H](NC(=O)c3ccc(N4CCC5(CC4)COc4cc6c(cc4C5)C(=O)N(C4CCC(=O)NC4=O)C6=O)nn3)CC2)cc1Cl` (stereo partly drawn) [Compound 60], the IC50 is 4.4 µM.

In the case of `N#Cc1ccc(O[C@H]2CC[C@H](NC(=O)c3ccc(N4CCC5(CCC(N6CCC7(CC6)COc6cc8c(cc6C7)C(=O)N(C6CCC(=O)NC6=O)C8=O)CC5)C4)nn3)CC2)cc1Cl` (stereo partly drawn) [Compound 62], the IC50 amounted to 0.52 µM.

Take `N#Cc1ccc(O[C@H]2CC[C@H](NC(=O)c3ccc(N4CCC5(CC(N6CCC7(CC6)COc6cc8c(cc6C7)C(=O)N(C6CCC(=O)NC6=O)C8=O)C5)C4)nn3)CC2)cc1Cl` (stereo partly drawn) [Compound 63]: the IC50 turned out to be 0.24 µM.

`N#Cc1ccc(O[C@H]2CC[C@H](NC(=O)c3ccc(N4CCC5(CCC(N6CCC7(CC6)COc6cc8c(cc6C7)C(=O)N(C6CCC(=O)NC6=O)C8=O)CC5)CC4)nn3)CC2)cc1Cl` (stereo partly drawn) [Compound 64]: the IC50 was found to be 0.16 µM.

Source of the values: patent US20260234157A1, “COMPOUND AND METHOD FOR TARGETED DEGRADATION OF ANDROGEN RECEPTOR” (Gan & Lee Pharmaceuticals Co., Ltd., priority 2023, published 2026).
